The text below walks through data of patent US20190185518A9, “WARHEAD-CONTAINING PEPTIDOMIMETIC MACROCYCLES AS MODULATORS OF BFL-1” (AILERON Therapeutics, Inc., priority 2017, published 2019).

Each structure is given as a SMILES string. Starred links: 1 amine or outer side, 2 acyl side, 3 side chain; linkers in the order of their positions; H or OH if unused. Positions of bridges follow the written chain, without caps; N, C: chain ends. Non-standard residues stand in square brackets, D forms with d. Residues, ends and D or L forms follow the SMILES beside them. Phe(4-F) = N[C@@H](Cc1ccc(F)cc1)C(=O)O; X1 = CC(C)CCC[C@H](N[*:1])C(=O)[*:2]; tBuAla = CC(C)(C)C[C@H](N)C(=O)O; R8 = C=CCCCCCC[C@@](C)(N)C(=O)O; S5 = C=CCCC[C@](C)(N)C(=O)O

Mcl-1, sequence (Q07820 whole entry, species assumed): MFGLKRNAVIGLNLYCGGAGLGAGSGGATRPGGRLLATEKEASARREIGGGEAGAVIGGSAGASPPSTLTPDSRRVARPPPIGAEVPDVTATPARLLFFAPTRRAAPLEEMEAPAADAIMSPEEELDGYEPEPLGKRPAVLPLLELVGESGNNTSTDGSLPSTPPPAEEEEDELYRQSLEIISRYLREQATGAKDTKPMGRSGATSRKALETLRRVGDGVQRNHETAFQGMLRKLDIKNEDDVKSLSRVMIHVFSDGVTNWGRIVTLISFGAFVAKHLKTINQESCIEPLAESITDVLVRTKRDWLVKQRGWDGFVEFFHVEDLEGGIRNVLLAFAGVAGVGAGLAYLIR

The target in the experiment is Mcl-1 (Homo sapiens, UniProt Q07820). Nature of the experiment: Ki determination for Mcl-1 (BCL-2 family binding spectrum). Conditions: read-out: Ki MCL-1. The source says:
To assess the binding and affinity of compounds that antagonize the interaction between a peptide and an acceptor protein, a fluorescence polarization assay (FPA) utilizing a fluoresceinated peptidomimetic macrocycle derived from a peptidomimetic precursor sequence is used, for example. The FPA technique measures the molecular orientation and mobility using polarized light and fluorescent tracer. […] A compound that antagonizes the interaction between the fluoresceinated peptidomimetic macrocycle and an acceptor protein will be detected in a competitive binding FPA experiment.
Antagonist binding activity is measured, for example, by fluorescence polarization on a luminescence spectrophotometer (e.g. Perkin-Elmer LS50B). Kd values may be determined by nonlinear regression analysis using, for example, Graphpad Prism software (GraphPad Software, Inc., San Diego, Calif.).
In general, Ki refers to a measure of affinity in units of concentration, obtained from inhibition or displacement. For `CC[C@H](C)[C@H](NC(C)=O)C(=O)N[C@@H](Cc1c[nH]c2ccccc12)C(=O)N[C@H](C(=O)N[C@@H](C)C(=O)N[C@@H](CCC(N)=O)C(=O)N[C@@H](C)C(=O)N[C@@H](CC(C)C)C(=O)N[C@@H](CCCNC(=N)N)C(=O)N[C@]1(C)CCCCCCC=CCCC[C@@](C)(C(=O)N[C@@H](Cc2ccc(O)cc2)C(=O)N[C@@H](Cc2ccc(O)cc2)C(=O)N[C@@H](C)C(=O)N[C@@H](CCCNC(=N)N)C(=O)N[C@@H](CCCNC(=N)N)C(N)=O)NC(=O)[C@H](CC(N)=O)NC(=O)[C@H](Cc2ccccc2)NC(=O)[C@H](CCC(=O)O)NC(=O)[C@H](CC(=O)O)NC(=O)CNC(=O)[C@H]([C@@H](C)CC)NC1=O)[C@@H](C)CC` [compound 1628] (Ac-IWIAQALR[R8]IGDEFN[S5]YYARR-NH2; staple 9-16), the Ki is 10.6 nM.

In the case of `CC[C@H](C)[C@H](NC(C)=O)C(=O)N[C@@H](C)C(=O)N[C@H](C(=O)N[C@@H](C)C(=O)N[C@@H](CCC(N)=O)C(=O)N[C@@H](C)C(=O)N[C@@H](CC(C)C)C(=O)N[C@@H](CCCNC(=N)N)C(=O)N[C@]1(C)CCCCCCC=CCCC[C@@](C)(C(=O)N[C@@H](Cc2ccc(O)cc2)C(=O)N[C@@H](Cc2ccc(O)cc2)C(=O)N[C@@H](C)C(N)=O)NC(=O)[C@H](CC(N)=O)NC(=O)[C@H](Cc2ccccc2)NC(=O)[C@H](C)NC(=O)[C@H](CC(=O)O)NC(=O)CNC(=O)[C@H]([C@@H](C)CC)NC1=O)[C@@H](C)CC` [compound 1648] (Ac-IAIAQALR[R8]IGDAFN[S5]YYA-NH2; staple 9-16), the Ki was 19.7 nM. Take `CC[C@H](C)[C@H](NC(C)=O)C(=O)N[C@@H](Cc1c[nH]c2ccccc12)C(=O)N[C@@H](CCCC(C)C)C(=O)N[C@@H](C)C(=O)N[C@@H](CCC(N)=O)C(=O)N[C@@H](C)C(=O)N[C@@H](CC(C)C)C(=O)N[C@@H](CCCNC(=N)N)C(=O)N[C@]1(C)CCCCCCC=CCCC[C@@](C)(C(=O)N[C@@H](Cc2ccc(O)cc2)C(=O)N[C@@H](Cc2ccc(O)cc2)C(=O)N[C@@H](C)C(N)=O)NC(=O)[C@H](CC(N)=O)NC(=O)[C@H](Cc2ccccc2)NC(=O)[C@H](C)NC(=O)[C@H](CC(=O)O)NC(=O)CNC(=O)[C@H]([C@@H](C)CC)NC1=O` [compound 1678] (Ac-IW[X1]AQALR[R8]IGDAFN[S5]YYA-NH2; staple 9-16): the Ki was 21.2 nM. The figure for `CC[C@H](C)[C@H](NC(C)=O)C(=O)N[C@@H](Cc1c[nH]c2ccccc12)C(=O)N[C@H](C(=O)N[C@@H](C)C(=O)N[C@@H](CCC(N)=O)C(=O)N[C@@H](C)C(=O)N[C@@H](CC(C)C)C(=O)N[C@@H](CCCNC(=N)N)C(=O)N[C@]1(C)CCCCCC/C=C\CCC[C@@](C)(C(=O)N[C@@H](Cc2ccc(O)cc2)C(=O)N[C@@H](Cc2ccc(O)cc2)C(=O)N[C@@H](C)C(N)=O)NC(=O)[C@H](CC(N)=O)NC(=O)[C@H](Cc2ccccc2)NC(=O)[C@H](C)NC(=O)[C@H](CC(=O)O)NC(=O)CNC(=O)[C@H](CC(C)(C)C)NC1=O)[C@@H](C)CC` [compound 1701] (Ac-IWIAQALR[R8][tBuAla]GDAFN[S5]YYA-NH2; staple (Z) 9-16) is 13.7 nM. The figure for `CC[C@H](C)[C@H](NC(C)=O)C(=O)N[C@@H](Cc1c[nH]c2ccccc12)C(=O)N[C@H](C(=O)N[C@@H](C)C(=O)N[C@@H](CCC(N)=O)C(=O)N[C@@H](C)C(=O)N[C@@H](CC(C)C)C(=O)N[C@@H](CCCNC(=N)N)C(=O)N[C@]1(C)CCCCCCC=CCCC[C@@](C)(C(=O)N[C@@H](Cc2ccc(O)cc2)C(=O)N[C@@H](Cc2ccc(F)cc2)C(=O)N[C@@H](C)C(N)=O)NC(=O)[C@H](CC(N)=O)NC(=O)[C@H](Cc2ccccc2)NC(=O)[C@H](C)NC(=O)[C@H](CC(=O)O)NC(=O)CNC(=O)[C@H]([C@@H](C)CC)NC1=O)[C@@H](C)CC` [compound 1710] (Ac-IWIAQALR[R8]IGDAFN[S5]Y[Phe(4-F)]A-NH2; staple 9-16) is 4.8 nM.
